Test results: US20050004186A1, “MEK inhibiting compounds” (Pfizer Inc, priority 2002, published 2005)
Where “and” joins values, the source holds several entries; their conditions need not be identical. Equal values may be shown once.

System: MEK
Experiment: Cellular assay for measuring MEK inhibition, C26CPA1 (inhibition of ERK phosphorylation in C26 cells)
Format: cell-based, murine
Conditions: for C26CPA1 % Inhibition @ 0.1 μM / C26CPA1 % Inhibition @ 1 μM: C26 cells; for IC50: murine colon 26 (C26) carcinoma cells, one hour at 37 C
Method: Cellular Assay for Measuring MEK Inhibition
MEK inhibitors were evaluated by determining their ability to inhibit phosphorylation of MAP kinase (ERK) in murine colon 26 (C26) carcinoma cells. Since ERK1 and ERK2 represent the only known substrates for MEK1 and MEK2, the measurement of inhibition of ERK phosphorylation in cells provides direct read out of cellular MEK inhibition by the compounds of the invention. Detection of phosphorylation of ERK was carried out either by Western blot or ELISA format. Briefly, the assays involve treatment of exponentially growing C26 cells with varying concentrations of the test compound (or vehicle control) for one hour at 37≡ C. For Western blot assay, cells were rinsed free of compound/vehicle and lysed in a solution containing 70 mM NaCl, 50 mM glycerol phosphate, 10 mM HEPES, […], 1% Triton X-100, 1 mM Na3VO4, 100 μM PMSF, 10 μM leupeptin and 10 μM pepstatin. Supernatants were then subjected to gel electrophoresis and hybridized to a primary antibody recognizing dually phosphorylated ERK1 and ERK2. To evaluate total MAPK levels, blots were subsequently ‘stripped’ and re-probed with a 1:1 mixture of polyclonal antibodies recognizing unphosphorylated ERK1 and ERK2. For pERK ELISA assay, pERK TiterZyme Enzyme immunometric Assay kits were acquired from Assay Designs, Inc (Ann Arbor, Mich.). Briefly, cells were harvested in lysis solution containing 50 mM β-glycerophosphate, 10 mM HEPES, pH7.4, 70 mM NaCl, 2 mM EDTA and 1% SDS and protein lysates were diluted 1:15 with supplied Assay buffer prior to the execution of the assay. The subsequent steps were carried out essentially as recommended by the manufacturer.

Row | Structure (SMILES) | C26CPA1 % Inhibition @ 0.1 μM [%] | C26CPA1 % Inhibition @ 1 μM | IC50 [nM]
1 | Fc1cc(I)ccc1Nc1c(-c2nnc(NC3CC4CCC3C4)o2)ccc(F)c1F (stereo not drawn) [Example 51, Bicyclo[2,2,1]hept-2-yl-{5-[3,4-difluoro-2-(2-fluoro-4-iodo-phenylamino)-phenyl]-[1,3,4]oxadiazol-2-yl}-amine] | 13.1 | 96% | –
2 | Cn1cccc1CCNc1nnc(-c2ccc(F)c(F)c2Nc2ccc(I)cc2F)o1 [Example 52, {5-[3,4-Difluoro-2-(2-fluoro-4-iodo-phenylamino)-phenyl]-[1,3,4]oxadiazol-2-yl}-[2-(1-methyl-1H-pyrrol-2-yl)-ethyl]-amine] | – | – | 86
3 | Cn1cnc(CCNc2nnc(-c3ccc(F)c(F)c3Nc3ccc(I)cc3F)o2)c1 [Example 53, {5-[3,4-Difluoro-2-(2-fluoro-4-iodo-phenylamino)-phenyl]-[1,3,4]oxadiazol-2-yl}-[2-(1-methyl-1H-imidazol-4-yl)-ethyl]-amine] | – | – | 230
4 | Fc1cc(I)ccc1Nc1c(-c2nnc(N3CCCC3CN3CCCC3)o2)ccc(F)c1F (stereo not drawn) [Example 54, {2,3-Difluoro-6-[5-(2-pyrrolidin-1-ylmethyl-pyrrolidin-1-yl)-[1,3,4]oxadiazol-2-yl]-phenyl}-(2-fluoro-4-iodo-phenyl)-amine] | 21.7 | 30.8% | –
5 | COCC(C)Nc1nnc(-c2ccc(F)c(F)c2Nc2ccc(I)cc2F)o1 (stereo not drawn) [Example 55, {5-[3,4-Difluoro-2-(2-fluoro-4-iodo-phenylamino)-phenyl]-[1,3,4]oxadiazol-2-yl}-(2-methoxy-1-methyl-ethyl)-amine] | 23.9 | 25.2% | –
6 | CCOCCCNc1nnc(-c2ccc(F)c(F)c2Nc2ccc(I)cc2F)o1 [Example 56, {5-[3,4-Difluoro-2-(2-fluoro-4-iodo-phenylamino)-phenyl]-[1,3,4]oxadiazol-2-yl}-(3-ethoxy-propyl)-amine] | – | – | 44
7 | O=C1OCCC1Nc1nnc(-c2ccc(F)c(F)c2Nc2ccc(I)cc2F)o1 (stereo not drawn) [Example 57, 3-{5-[3,4-Difluoro-2-(2-fluoro-4-iodo-phenylamino)-phenyl]-[1,3,4]oxadiazol-2-ylamino}-dihydro-furan-2-one] | 31.3 | 51.8% | –
8 | CCOC(=O)CCNc1nnc(-c2ccc(F)c(F)c2Nc2ccc(I)cc2F)o1 [Example 58, 3-{5-[3,4-Difluoro-2-(2-fluoro-4-iodo-phenylamino)-phenyl]-[1,3,4]oxadiazol-2-ylamino}-propionic Acid Ethyl Ester] | 0 | 17.8% | –
9 | Cc1cccc(C)c1OCC(C)Nc1nnc(-c2ccc(F)c(F)c2Nc2ccc(I)cc2F)o1 (stereo not drawn) [Example 59, {5-[3,4-Difluoro-2-(2-fluoro-4-iodo-phenylamino)-phenyl]-[1,3,4]oxadiazol-2-yl}-[2-(2,6-dimethyl-phenoxy)-1-methyl-ethyl]-amine] | 0 | 0% | –
10 | CCN(CC)C1CCN(c2nnc(-c3ccc(F)c(F)c3Nc3ccc(I)cc3F)o2)C1 (stereo not drawn) [Example 60, (1-{5-[3,4-Difluoro-2-(2-fluoro-4-iodo-phenylamino)-phenyl]-[1,3,4]oxadiazol-2-yl}-pyrrolidin-3-yl)-diethyl-amine] | 8.2 | 68% | –
11 | CN1CCCN(c2nnc(-c3ccc(F)c(F)c3Nc3ccc(I)cc3F)o2)CC1 [Example 61, {2,3-Difluoro-6-[5-(4-methyl-[1,4]diazepan-1-yl)-[1,3,4]oxadiazol-2-yl]-phenyl}-(2-fluoro-4-iodo-phenyl)-amine] | – | – | 850
12 | CN1CCCC1CCNc1nnc(-c2ccc(F)c(F)c2Nc2ccc(I)cc2F)o1 (stereo not drawn) [Example 62, {5-[3,4-Difluoro-2-(2-fluoro-4-iodo-phenylamino)-phenyl]-[1,3,4]oxadiazol-2-yl}-[2-(1-methyl-pyrrolidin-2-yl)-ethyl]-amine] | 53.7 | 98.5% | –
13 | Fc1cc(I)ccc1Nc1c(-c2nnc(NCCCCN3CCCC3)o2)ccc(F)c1F [Example 63, {5-[3,4-Difluoro-2-(2-fluoro-4-iodo-phenylamino)-phenyl]-[1,3,4]oxadiazol-2-yl}-(4-pyrrolidin-1-yl-butyl)-amine] | – | – | 23
14 | CCN(CC)CCCC(C)Nc1nnc(-c2ccc(F)c(F)c2Nc2ccc(I)cc2F)o1 (stereo not drawn) [Example 64, N*4*-{5-[3,4-Difluoro-2-(2-fluoro-4-iodo-phenylamino)-phenyl]-[1,3,4]oxadiazol-2-yl}-N*1* ,N*1*-diethyl-pentane-1,4-diamine] | 0 | 18.2% | –
15 | Fc1cc(I)ccc1Nc1c(-c2nnc(NCC3CCCO3)o2)ccc(F)c1F (stereo not drawn) [Example 65, {5-[3,4-Difluoro-2-(2-fluoro-4-iodo-phenylamino)-phenyl]-[1,3,4]oxadiazol-2-yl}-(tetrahydro-furan-2-ylmethyl)-amine] | 0 | 12.7% | –
16 | COCCN(CCOC)c1nnc(-c2ccc(F)c(F)c2Nc2ccc(I)cc2F)o1 [Example 66, {5-[3,4-Difluoro-2-(2-fluoro-4-iodo-phenylamino)-phenyl]-[1,3,4]oxadiazol-2-yl}-bis-(2-methoxy-ethyl)-amine] | 0 | 12.5% | –
17 | CCc1ccc(Nc2c(-c3nnc(N4CCCC4)o3)ccc(F)c2F)c(F)c1 [Example 75, [2,3-Difluoro-6-(5-pyrrolidin-1-yl-1,3,4-oxadiazol-2-yl)-phenyl]-(4-ethyl-2-fluoro-phenyl)-amine] | – | 39.1% and 30.6% | –
18 | C=CCN(CC=C)c1nnc(-c2ccc(F)c(F)c2Nc2ccc(CC)cc2F)o1 [Example 83, Diallyl-{5-[2-(4-ethyl-2-fluoro-phenylamino)-3,4-difluoro-phenyl]-1,3,4-oxadiazol-2-yl}-amine] | 65.6 | 77.9% | –
19 | CCc1ccc(Nc2c(-c3nnc(N(C)CCCN(C)C)o3)ccc(F)c2F)c(F)c1 [Example 93, N^1-{5-[2-(4-Ethyl-2-fluoro-phenylamino)-3,4-difluoro-phenyl]-1,3,4-oxadiazol-2-yl}-N1,N>3,N>3-trimethyl-propane-1.3-diamine] | 0 | 31.9% | –
20 | CCc1ccc(Nc2c(-c3nnc(N(CCCN(C)C)CCCN(C)C)o3)ccc(F)c2F)c(F)c1 [Example 96, N^1-(3-Dimethylamino-propyl)-N^1-{5-[2-(4-ethyl-2-fluoro-phenylamino)-3,4-difluoro-phenyl]-1,3,4-oxadiazol-2-yl}-N>3,N>3-dimethyl-propane-1,3-diamine] | 54 | 55% | –
21 | CCCN(CC1CC1)c1nnc(-c2ccc(F)c(F)c2Nc2ccc(CC)cc2F)o1 [Example 100, Cyclopropylmethyl-{5-[2-(4-ethyl-2-fluoro-phenylamino)-3,4-difluoro-phenyl]-1,3,4-oxadiazol-2-yl}-propyl-amine] | 37.1 | 40.5% | –
22 | CCc1ccc(Nc2c(-c3nnc(N4CCN(CC)CC4)o3)ccc(F)c2F)c(F)c1 [Example 101, (4-Ethyl-2-fluoro-phenyl)-{6-[5-(4-ethyl-piperazin-1-yl)-1,3,4-oxadiazol-2-yl]-2,3-difluoro-phenyl}-amine] | 41.2 | 47.1% | –
23 | CCc1ccc(Nc2c(-c3nnc(N(C)C4CCN(C)C4)o3)ccc(F)c2F)c(F)c1 (stereo not drawn) [Example 102, {5-[2-(4-Ethyl-2-fluoro-phenylamino)-3,4-difluoro-phenyl]-1,3,4-oxadiazol-2-yl}-methyl-(1-methyl-pyrrolidin-3-yl)-amine] | 42.4 | 54.6% | –
24 | CCc1ccc(Nc2c(-c3nnc(N4CCN(C)CC4)o3)ccc(F)c2F)c(F)c1 [Example 112, {2,3-Difluoro-6-[5-(4-methyl-piperazin-1-yl)-1,3,4-oxadiazol-2-yl]-phenyl}-(4-ethyl-2-fluoro-phenyl)-amine] | 62.6 | 84% | –
25 | CCc1ccc(Nc2c(-c3nnc(NCCc4cccs4)o3)ccc(F)c2F)c(F)c1 [Example 114, {5-[2-(4-Ethyl-2-fluoro-phenylamino)-3,4-difluoro-phenyl]-1,3,4-oxadiazol-2-yl}-(2-thiophen-2-yl-ethyl)-amine] | 35.4 | 46.3% | –
26 | CCc1ccc(Nc2c(-c3nnc(N(C)CCS(C)(=O)=O)o3)ccc(F)c2F)c(F)c1 [Example 121, {5-[2-(4-Ethyl-2-fluoro-phenylamino)-3,4-difluoro-phenyl]-1,3,4-oxadiazol-2-yl}-(2-methanesulfonyl-ethyl)-methyl-amine] | 0 | 26.9% | –
27 | CCc1ccc(Nc2c(-c3nnc(N4CCN(Cc5ccccn5)CC4)o3)ccc(F)c2F)c(F)c1 [Example 123, {2,3-Difluoro-6-[5-(4-pyridin-2-ylmethyl-piperazin-1-yl)-1,3,4-oxadiazol-2-yl]-phenyl}-(4-ethyl-2-fluoro-phenyl)-amine] | 0 | 0% | –
